According to ChEMBL document CHEMBL4834394, “Neobulgarones Revisited: Anti and Syn Bianthrones from an Australian Mud Dauber Wasp Nest-Associated Fungus, Penicillium sp. CMB-MD22” (J Nat Prod, 2021):
Active and inactive are the calls of the source. The calls are words filed in the database; no cut-off is given here.

Key:
[1] = system: Staphylococcus aureus; experiment: Antibacterial activity against Staphylococcus aureus ATCC 25923 assessed as inhibition of bacterial growth incubated for 24 hrs; type: functional, organism-based; settings: ATCC 25923, 24 h
[2] = system: Escherichia coli; experiment: Antibacterial activity against Escherichia coli ATCC 11775 assessed as inhibition of bacterial growth incubated for 24 hrs; type: functional, organism-based; settings: ATCC 11775, 24 h
[3] = system: SW-620; experiment: Cytotoxicity against human SW620 cells after 48 hrs by MTT assay; type: functional, cell-based
[4] = system: Candida albicans; experiment: Antifungal activity against Candida albicans ATCC 10231 assessed as inhibition of fungal growth incubated for 24 hrs; type: functional, organism-based; settings: ATCC 10231, 24 h
[5] = molecular target: ATP-dependent translocase ABCB1 (Homo sapiens, UniProt P08183); experiment: Reversal of P-gp mediated doxorubicin resistance in human SW620 Ad300 cells overexpressing P-gp at 30 uM after 48 hrs by MTT assay; type: cell-based; settings: sw-620, 48 h
ATP-dependent translocase ABCB1, sequence (P08183 whole entry): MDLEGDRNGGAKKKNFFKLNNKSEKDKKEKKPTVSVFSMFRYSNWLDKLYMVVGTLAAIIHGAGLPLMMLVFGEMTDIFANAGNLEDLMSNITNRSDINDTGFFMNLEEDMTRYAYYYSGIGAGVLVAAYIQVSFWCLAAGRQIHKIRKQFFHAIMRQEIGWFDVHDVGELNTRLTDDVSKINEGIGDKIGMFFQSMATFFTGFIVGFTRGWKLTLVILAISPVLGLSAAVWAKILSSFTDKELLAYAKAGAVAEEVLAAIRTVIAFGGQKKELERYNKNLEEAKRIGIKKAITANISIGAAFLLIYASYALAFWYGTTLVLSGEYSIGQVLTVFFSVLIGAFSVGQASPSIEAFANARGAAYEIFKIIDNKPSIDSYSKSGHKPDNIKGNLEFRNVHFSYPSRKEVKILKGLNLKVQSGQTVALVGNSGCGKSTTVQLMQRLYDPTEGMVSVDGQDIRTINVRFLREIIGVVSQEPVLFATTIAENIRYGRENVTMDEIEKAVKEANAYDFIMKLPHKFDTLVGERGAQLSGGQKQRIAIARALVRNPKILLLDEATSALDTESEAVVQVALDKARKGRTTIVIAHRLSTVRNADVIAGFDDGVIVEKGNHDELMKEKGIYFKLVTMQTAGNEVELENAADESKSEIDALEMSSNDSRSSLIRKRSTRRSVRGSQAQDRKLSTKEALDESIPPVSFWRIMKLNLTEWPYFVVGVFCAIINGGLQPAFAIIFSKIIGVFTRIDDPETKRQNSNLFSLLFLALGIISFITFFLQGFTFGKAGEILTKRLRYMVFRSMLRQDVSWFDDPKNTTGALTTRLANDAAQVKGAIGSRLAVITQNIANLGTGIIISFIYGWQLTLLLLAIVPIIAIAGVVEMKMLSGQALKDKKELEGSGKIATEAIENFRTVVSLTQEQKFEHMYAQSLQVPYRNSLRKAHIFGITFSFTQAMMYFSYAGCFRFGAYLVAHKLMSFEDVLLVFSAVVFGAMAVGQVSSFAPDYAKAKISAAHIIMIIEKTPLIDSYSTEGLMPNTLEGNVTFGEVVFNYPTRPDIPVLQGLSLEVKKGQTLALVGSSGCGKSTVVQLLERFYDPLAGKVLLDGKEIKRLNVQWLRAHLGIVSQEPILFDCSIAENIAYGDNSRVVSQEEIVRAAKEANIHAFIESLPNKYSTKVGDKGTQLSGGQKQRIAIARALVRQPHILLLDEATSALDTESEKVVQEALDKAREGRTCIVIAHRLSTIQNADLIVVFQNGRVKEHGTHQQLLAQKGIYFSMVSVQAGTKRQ

Row | SMILES | Activity [5] | IC50 [1] [µM] | IC50 [2] [µM] | Activity [3] | IC50 [4] [µM]
1 | COc1cc(C)cc2c1C(=O)c1c(O)cc(O)c(Cl)c1C2O (stereo not given) | Not Active | > 30 | > 30 | inactive | > 30
2 | COc1cc(C)cc2c1C(=O)c1c(O)cc(O)c(Cl)c1[C@@H]2[C@@H]1c2cc(C)cc(OC)c2C(=O)c2c(O)cc(O)c(Cl)c21 | Not Active | > 30 | > 30 | inactive | > 30
3 | COc1cc(C)cc2c1C(=O)c1c(O)c(OC)c(O)c(Cl)c1[C@@H]2[C@H]1c2cc(C)cc(OC)c2C(=O)c2c(O)c(OC)c(O)c(Cl)c21 | Not Active | > 30 | > 30 | inactive | > 30
4 | COc1cc(C)cc2c1C(=O)c1c(cc(O)c(OC)c1O)C2=O | Not Active | > 30 | > 30 | inactive | > 30
5 | COc1cc(C)cc2c1C(=O)c1c(O)cc(O)cc1[C@@H]2[C@@H]1c2cc(C)cc(OC)c2C(=O)c2c(O)cc(O)c(Cl)c21 | Not Active | > 30 | > 30 | inactive | > 30
6 | COc1cc(CO)cc2c1C(=O)c1c(O)cc(O)cc1C2=O [CARVIOLIN] | Not Active | > 30 | > 30 | inactive | > 30
7 | COc1cc(C)cc2c1C(=O)c1c(O)cc(O)c(Cl)c1[C@@H]2[C@H]1c2cc(C)cc(OC)c2C(=O)c2c(O)cc(O)c(Cl)c21 | Not Active | > 30 | > 30 | inactive | > 30
8 | COc1cc(C)cc2c1C(=O)c1c(O)cc(O)cc1C2=O [1-O-METHYLEMODIN] | Not Active | > 30 | > 30 | inactive | > 30
9 | COc1cc(CO)cc2c1C(=O)c1c(cc(O)c(OC)c1O)C2=O | Not Active | > 30 | > 30 | inactive | > 30
10 | COc1cc(C)cc2c1C(=O)c1c(cc(O)c(OC)c1O)[C@@H]2[C@@H]1c2cc(C)cc(OC)c2C(=O)c2c(O)c(OC)c(O)c(Cl)c21 | Not Active | > 30 | > 30 | inactive | > 30

Further lines, with some results ahead:

Row | Activity [5] | SMILES | IC50 [1] [µM] | IC50 [2] [µM] | Activity [3] | IC50 [4] [µM]
11 | Not Active | COc1cc(C)cc2c1C(=O)c1c(O)cc(O)cc1[C@@H]2[C@@H]1c2cc(C)cc(OC)c2C(=O)c2c(O)c(OC)c(O)c(Cl)c21 | > 30 | > 30 | inactive | > 30
12 | Not Active | COc1cc(C)cc2c1C(=O)c1c(O)cc(O)c(Cl)c1[C@@H]2[C@@H]1c2cc(C)cc(OC)c2C(=O)c2c(O)c(OC)c(O)c(Cl)c21 | > 30 | > 30 | inactive | > 30
13 | Not Active | COc1cc(C)cc2c1C(=O)c1c(O)c(OC)c(O)c(Cl)c1[C@@H]2[C@H]1c2cc(C)cc(OC)c2C(=O)c2c(O)cc(O)c(Cl)c21 | > 30 | > 30 | inactive | > 30
14 | Not Active | COc1cc(C)cc2c1C(=O)c1c(O)c(OC)c(O)c(Cl)c1[C@@H]2[C@@H]1c2cc(C)cc(OC)c2C(=O)c2c(O)c(OC)c(O)c(Cl)c21 | > 30 | > 30 | inactive | > 30
15 | Not Active | COc1cc(C)cc2c1C(=O)c1c(cc(O)c(OC)c1O)[C@@H]2[C@@H]1c2cc(C)cc(OC)c2C(=O)c2c(O)cc(O)c(Cl)c21 | > 30 | > 30 | inactive | > 30
16 | Not Active | COc1cc(C)cc2c1C(=O)c1c(cc(O)c(OC)c1O)[C@H]2[C@@H]1c2cc(C)cc(OC)c2C(=O)c2c(O)cc(O)c(Cl)c21 | > 30 | > 30 | inactive | > 30
